Structures can show the parent of a compound that is named as a salt.
Test system: rat foot pad
Assay: Inhibition of sweat in the rat foot pad (iodine/starch count of activated sweat glands, test foot vs control foot)
Assay type: in vivo, Sprague Dawley rats
Conditions: for Approx. % Inhibition: topical on hind foot pads, photo 40 minutes post treatment
Method: To test the effectiveness of the adrenergic amines encompassed in this invention in inhibiting perspiration the following tests were carried out.
A series of test solutions were prepared by dissolving various quantities of xylometazoline HCl, oxymetazoline HCl and naphazoline HCl in freshly prepared distilled water. In the case of xylometazoline HCl 0.003%, 0.03%, 0.15% and 0.3% solutions were prepared. In the cases for oxymetazoline HCl and naphazoline HCl 0.15% solutions were made. The control material is distilled water.
• A. Prior to testing, rats are routinely acclimated to the laboratory environment for seven days and gross observations are made to ensure good health of animals to be tested. • B. Sprague Dawley rats, male and/or female (175-250 gm) are selected for test and identified by cage label and ear tag number. • C. A minimum of 6 animals is used in testing each solution.
• A. Test room should be maintained at a temperature of 78/± 2/F. • B. • 1. Test animals are injected intramuscularly with Innovar Vet\)\ (.01 ml/100 gm body wt.) by use of a 0.25 ml tuberculin syringe with a 26-27 gauge needle. Animals are then returned to their cages. • 2. […] Both hind feet are then swabbed with 70% ethyl alcohol (ETOH) to remove any debris. • 4. The four interdigital palmar foot pads on one hind foot are then treated with test material while the opposite hind foot is treated with the control material. • 5. After treatment of all animals, an iodine solution (2% in 95% ETOH wt./vol.) is applied to both hind feet. • 6. 30 minutes post treatment the hind feet are then painted with a suspension of starch and castor oil (50/50, wt./vol.). • 7. 40 minutes post treatment Polaroid photos (3X, using Polaroid Type Film 669) are taken of both hind feet in the same frame.
• 1. The number of activated sweat glands in each of the four palmar foot pads is quantitated by manually counting the black dots observed in the photo of the control and test treated feet. • 2. The ratio of the total number of secreting sweat glands on the control foot vs the total number of secreting glands on the test foot is used to estimate the percent inhibition of sweat in the rat foot pad. • 3. The following formula is used to calculate activity: Percent inhibition of sweat in the rat foot pad = [formula]

[1] = Concentration tested 0.15% in distilled water

Row | Structure (SMILES) | Approx. % Inhibition [1] [%] | Approx. % Inhibition (Concentration tested 0.003% in distilled water) [%] | Approx. % Inhibition (Concentration tested 0.03% in distilled water) [%] | Approx. % Inhibition (Concentration tested 0.3% in distilled water) [%] | perspiration inhibition (result in words) (summary of Table I, concentrations 0.003-0.3%)
1 | Cc1cc(C(C)(C)C)c(O)c(C)c1CC1=NCCN1 [Oxymetazoline HCl, oxymetazoline HCl] | ~92 |  |  |  | 
2 | c1ccc2c(CC3=NCCN3)cccc2c1 [Naphazoline HCl, naphazoline HCl] | ~95 |  |  |  | 
3 | Cc1cc(C(C)(C)C)cc(C)c1CC1=NCCN1 [Xylometazoline HCl, xylometazoline HCl] | ~80 | ~30 | ~50 | ~88 | a dose response has been demonstrated
